Laboratory results as given in patent US10829538B2, “Identification of immunogenic MHC class II peptides for immune-based therapy” (THE TRUSTEES OF THE UNIVERSITY OF PENNSYLVANIA, priority 2015, dated 2020).

Tests used:
HLA-DR, DP, DQ = assay: MHC class II promiscuity of CD4+ Th1 responses (HLA-DR, DP, DQ typing of donors); type: cell-based, human; conditions: DQ subtypes
[1] = test system: HER3 ECD-sensitized CD4+ Th1 cells; assay: Sequential screening of HER3 ECD peptide library: HER3 ECD-sensitized CD4+ Th1 restimulated against peptide-pulsed iDCs, IFN-γ ELISA; type: cell-based, human; conditions: for reactivity of CD4+ T cells across donors (IFN-γ secretion): 5-6 subjects with known anti-HER3 ECD reactivity
[2] = Donor # 15107-26, previously sensitized to HER3 ECD
[3] = Donor # 15107-31, previously sensitized to HER3 ECD
[4] = Donor # 15107-38, previously sensitized to HER3 ECD
[5] = Donor # 26113-03, previously sensitized to HER3 ECD
[6] = Donor # 15107-24, previously sensitized to HER3 ECD

## AGRIYISANRQLCYH [HER3451-465, HER3 ECD MHC class II immunogenic peptide, positions 451-465]
HLA-DR, DP, DQ
  MHC class II promiscuity: promiscuous across HLA-DR, DP, and DQ subtypes
[1]
  reactivity of CD4+ T cells across donors (IFN-γ secretion): react across most donors
[1]; listed as HER3(451-465)
  reactivity of CD4+ T cells across donors (IFN-γ secretion): reproducibly identified
[1]; [2]
  immunogenic CD4+ HER3 ECD peptide identified: ✓
[1]; [3]
  immunogenic CD4+ HER3 ECD peptide identified: ✓
[1]; [4]
  immunogenic CD4+ HER3 ECD peptide identified: ✓
[1]; [5]
  immunogenic CD4+ HER3 ECD peptide identified: ✓

## TTIGGRSLYNRGFSL [HER3416-430, HER3 ECD MHC class II immunogenic peptide, positions 416-430]
HLA-DR, DP, DQ
  MHC class II promiscuity: promiscuous across HLA-DR, DP, and DQ subtypes
[1]
  reactivity of CD4+ T cells across donors (IFN-γ secretion): react across most donors
[1]; listed as HER3(416-430)
  reactivity of CD4+ T cells across donors (IFN-γ secretion): reproducibly identified
[1]; [6]
  immunogenic CD4+ HER3 ECD peptide identified: ✓
[1]; [2]
  immunogenic CD4+ HER3 ECD peptide identified: ✓
[1]; [3]
  immunogenic CD4+ HER3 ECD peptide identified: ✓
[1]; [5]
  immunogenic CD4+ HER3 ECD peptide identified: ✓

## CEVVMGNLEIVLTGH [HER356-70, HER3 ECD MHC class II immunogenic peptide, positions 56-70]
HLA-DR, DP, DQ
  MHC class II promiscuity: promiscuous across HLA-DR, DP, and DQ subtypes
[1]
  reactivity of CD4+ T cells across donors (IFN-γ secretion): react across most donors
[1]; listed as HER3(56-70)
  reactivity of CD4+ T cells across donors (IFN-γ secretion): reproducibly identified
[1]; [6]
  immunogenic CD4+ HER3 ECD peptide identified: ✓
[1]; [2]
  immunogenic CD4+ HER3 ECD peptide identified: ✓
[1]; [4]
  immunogenic CD4+ HER3 ECD peptide identified: ✓
[1]; [5]
  immunogenic CD4+ HER3 ECD peptide identified: ✓

## SWPPHMHNFSVFSNL [HER3401-415, HER3 ECD MHC class II immunogenic peptide, positions 401-415]
HLA-DR, DP, DQ
  MHC class II promiscuity: promiscuous across HLA-DR, DP, and DQ subtypes
[1]
  reactivity of CD4+ T cells across donors (IFN-γ secretion): react across most donors
[1]; listed as HER3(401-415)
  reactivity of CD4+ T cells across donors (IFN-γ secretion): reproducibly identified
[1]; [6]
  immunogenic CD4+ HER3 ECD peptide identified: ✓
[1]; [2]
  immunogenic CD4+ HER3 ECD peptide identified: ✓
[1]; [5]
  immunogenic CD4+ HER3 ECD peptide identified: ✓
